# Entries after “also recorded” stand apart in the source; their conditions may differ.
# Assays:
# [1] = tested on: PCSK9[1:33]-GFP translation; test: Microfluidic activity-based DEL screen in WG IVTT droplets, PCSK9[1:33]-GFP, hit k class by sequencing; format: biochemical, wheat germ; settings: number of times hit structure observed on distinct beads, summed across PCSK9[1:33]-GFP screens; *** p < 0.001, NS not significant
# Protocol: The validated PF846-inspired library was screened to discover novel translation inhibitors. DEL beads were encapsulated in microfluidic droplets of WG IVTT and irradiated with UV in flow to liberate DEL members into the droplets. The photodosed droplets were incubated and sorted based on fluorescence.[25] PCSK9[1:33]-GFP was chosen as a proof-of-concept target, and PCSK9-FS[1:33]-GFP was used as a counter screen target to identify nonselective compounds. PC-HygB were mixed with DEL beads and screened in the microfluidic device for inhibitors of translation. […] Droplet generation, bead introduction, and library and control bead hit rate were uniform during the screen (Figure 3, bottom).
# Hit collection DNA tags from the PCSK9[1:33]-GFP and PCSK9-FS[1:33]-GFP screens were sequenced to deduce the structures of molecules that inhibited PCSK9[1:33]- or PCSK9-FS[1:33]-GFP translation. Hit structure k class, the number of times a given hit structure is observed on distinct beads,[31] was summed across screens and visualized as a heat map (Figure 4A). […] The combined hit sets for the two templates contained 121 unique hits with k ≥ 17 across the two screening campaigns. The most frequently observed cycle 1 starter BBs were 1 and 2, which share an 8-methylisoquinoline moiety, but differ in the vector for cycle 2 carboxylic acid connection, and 3, which contains an N-methylazaindole moiety. The most frequently identified cycle 2 tails included carboxylic acids 4–7. […] Substituted pyrazole 6 and pyridyl-benzimidazole 7 also appeared frequently with the aforementioned starters. There were 5 hits that appeared with high k class in both PCSK9[1:33]-GFP and PCSK9[1:33]-FS-GFP screening campaigns.
# 319 the droplet experiment to homogenize the bead suspension. Syringes were connected to
# 320 fluidic inputs with microbore Tygon tubing (0.01” x 0.03” IC × OD). Droplet generation oil
# 321 (OIL1) was 1% picosurf in HFE. Spacing (OIL2) and pinning (OIL3) oils were neat HFE.
# 322 Assay reagents were driven by displacement syringe pumps (Legato 100, KD Scientific,
# 323 Holliston, MA) through the circuit. OIL2 and OIL3 were initially flowed (22 µL/min and
# 324 12 µL/min, respectively) and hit and waste shunt tubing were clamped to backfill the
# 325 circuit. Once the incubator was filled with oil, the hit and waste tubing were unclamped
# 326 and back shunts were clamped. AQ1, AQ2, and OIL1 flows were initiated (960 nL/min,
# 327 640 nL/min, and 1200 nL/min, respectively) and held constant during the screen. Once
# 328 droplet generation equilibrated (∼10 min), the main shunt was clamped and droplets
# 329 started to fill the incubator. When droplets filled the incubator and entered the sorting
# 330 region, data acquisition and screening was initiated.
# 331 The custom confocal LIF detection setup and LabView code were previously described.S3
# 332 Briefly, photon counting PMTs (H7828, Hamamatsu, Middlesex, NJ) were used to detect
# 333 droplet fluorescence emission using a custom two-channel (520 and 570 nm) confocal mi-
# 334 croscope with laser excitation (488 nm, 20 mW, OBIS-488 20LS, Coherent Inc., Santa Clara,
# 335 CA). A data acquisition board (DAQ, NI, USB-6341, National Instruments) was used to
# 336 digitize PMT signal, which was binned into counts, and in-house LabView code was used
# 337 to control acquisition and execute droplet sorting decisions. Signal was smoothed in real-
# 338 time using median-filter smoothing (width = 3). Droplets were identified by the 570 nm
# 339 channel signal and the maximum signal in the 520 nm channel (max = countsn-1 when
# 340 countsn <countsn-1) was set as the droplet peak value. A roaming sort threshold was
# 342 the 520 nm channel. The threshold was calculated as µ - 5σ, where µ andσ were the mean
# 343 and standard deviation of the previous 300 droplets’ fluorescence values, respectively. Hit
# 344 droplets were not included in the calculation of droplet mean and standard deviation. A […]
# [2] = tested on: PCSK9 expression in HepG2 cells; test: HepG2 cellular assay, PCSK9 Western blot; format: cell-based; settings: 16 h treatment, 5 or 50 µM, triplicate, normalized to DMSO
# Protocol: Reaction buffer (1 µL) and template (0.5 µL) were added and reaction progress was
# Relative activity was cal-
# 450 culated using the slope of fluorescence increase over time (15–30 min post reaction initia-
# Gene blocks were purchased from IDT
# Digestion with Sgf I and PmeI allowed for
# Sequence-verified plasmids
# 460 were cloned into DH5α E. coli for standard large-scale DNA plasmid preparation.
# Gene blocks were purchased
# Digestion with NdeI and XhoI
# 470 (4.5 g/L high-glucose DMEM, 2 mM L-glutamine, 10% fetal bovine serum, 1% penicillin-
# Cells were lysed (100 µL RIPA buffer,
# Protein lysates (24 µg) were separated by denaturing polyacrylamide
# 480 PCSK9 rabbit monoclonal antibody, 5% BSA in PBS-T). The PCSK9 probed membrane
# HRP-labeled bands were visualized
# Figure S12. […] PCSK9 expression in HepG2 cells
# treated 16 h with PF846 or screening hit 8 (5 or 50 µM) or vehicle control (DMSO) was analyzed in triplicate
# (also on this page, place not known: S12894 GAPDH pro m DMSO 5 μM DMSO μM 5 μM 50 μM PCSK9 PF846 hit8 50)
# (1 picture or pasted object on this page, not shown here)
compound,measurement,setting,value
Cc1cccc2ccnc(N(C(=O)[C@H]3CCCN(C(=O)c4cccc5c(C#N)c[nH]c45)C3)[C@@H]3CCCNC3)c12 [Compound 8],k class PCSK9,[1],47
same,PCSK9 protein levels in HepG2 cells (in words),[2],significantly reduced; also recorded: lower levels of endogenous PCSK9
Cc1cccc2ccnc(N(C(=O)C3CCN(C(=O)c4cccc5c(C#N)c[nH]c45)CC3)[C@@H]3CCCNC3)c12 [Compound 9],k class PCSK9,[1],28
